From ChEMBL document CHEMBL1201862, “PubChem BioAssay data set” (2004)
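In this assay, cells in 96-well plates receive the compound at five concentrations for 48 hours. Endpoints are linearly interpolated between the surrounding concentrations. Here, GI50 denotes the concentration required for 50% inhibition of growth.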 Active and inactive are the calls of the source. Rule as the data show it: active = GI50 up to about 1.1 µM and inactive = higher.

Key:
Assay in all cases: DTP human tumour cell line panel, 48 h
KM12 = tested on: KM12
NCI/ADR-RES = tested on: NCI/ADR-RES
Malme-3M = tested on: Malme-3M
LOX IMVI = tested on: LOX IMVI
SF-539 = tested on: SF-539
MDA-MB-231 = tested on: MDA-MB-231
MDA-N = tested on: MDA-N
OVCAR-8 = tested on: OVCAR-8
SW-620 = tested on: SW-620
CAKI-1 = tested on: CAKI-1
SK-MEL-5 = tested on: SK-MEL-5
HCC 2998 = tested on: HCC 2998
MDA-MB-435 = tested on: MDA-MB-435
UACC-257 = tested on: UACC-257
OVCAR-3 = tested on: OVCAR-3
MCF7 = tested on: MCF7
HOP-92 = tested on: HOP-92
K562 = tested on: K562
MOLT-4 = tested on: MOLT-4
UO-31 = tested on: UO-31
NCI-H522 = tested on: NCI-H522
PC-3 = tested on: PC-3
COLO 205 = tested on: COLO 205
SF-268 = tested on: SF-268
CCRF-CEM = tested on: CCRF-CEM
BT-549 = tested on: BT-549
ACHN = tested on: ACHN
OVCAR-4 = tested on: OVCAR-4
A498 = tested on: A498
OVCAR-5 = tested on: OVCAR-5
SK-OV-3 = tested on: SK-OV-3
RXF 393 = tested on: RXF 393
SK-MEL-28 = tested on: SK-MEL-28
SNB-19 = tested on: SNB-19
HCT-15 = tested on: HCT-15
IGROV-1 = tested on: IGROV-1
U-251 = tested on: U-251
786-0 = tested on: 786-0
Hs-578T = tested on: Hs-578T
HL-60 = tested on: HL-60
NCI-H460 = tested on: NCI-H460
SF-295 = tested on: SF-295
NCI-H226 = tested on: NCI-H226
HCT-116 = tested on: HCT-116
EKVX = tested on: EKVX
SK-MEL-2 = tested on: SK-MEL-2
SR = tested on: SR
DU-145 = tested on: DU-145
SN12C = tested on: SN12C
SNB-75 = tested on: SNB-75
M14 = tested on: M14
A549 = tested on: A549
T47D = tested on: T47D
UACC-62 = tested on: UACC-62
RPMI-8226 = tested on: RPMI-8226
NCI-H23 = tested on: NCI-H23
HT-29 = tested on: HT-29
HOP-62 = tested on: HOP-62
TK-10 = tested on: TK-10

Structure (SMILES): CCOC(=O)/C(C(N)=O)=C(/O)c1cnccn1
- GI50 (KM12): > 100 µM (inactive)
- GI50 (NCI/ADR-RES): > 100 µM (inactive)
- GI50 (Malme-3M): > 100 µM (inactive)
- GI50 (LOX IMVI): > 100 µM (inactive)
- GI50 (SF-539): > 100 µM (inactive)
- GI50 (MDA-MB-231): > 100 µM (inactive)
- GI50 (MDA-N): > 100 µM (inactive)
- GI50 (OVCAR-8): > 100 µM (inactive)
- GI50 (SW-620): > 100 µM (inactive)
- GI50 (CAKI-1): > 100 µM (inactive)
- GI50 (SK-MEL-5): > 100 µM (inactive)
- GI50 (HCC 2998): > 100 µM (inactive)
- GI50 (MDA-MB-435): > 100 µM (inactive)
- GI50 (UACC-257): > 100 µM (inactive)
- GI50 (OVCAR-3): > 100 µM (inactive)
- GI50 (MCF7): > 100 µM (inactive)
- GI50 (HOP-92): > 100 µM (inactive)
- GI50 (K562): > 100 µM (inactive)
- GI50 (MOLT-4): > 100 µM (inactive)
- GI50 (UO-31): > 100 µM (inactive)
- GI50 (NCI-H522): > 100 µM (inactive)
- GI50 (PC-3): > 100 µM (inactive)
- GI50 (COLO 205): > 100 µM (inactive)
- GI50 (SF-268): > 100 µM (inactive)
- GI50 (CCRF-CEM): > 100 µM (inactive)
- GI50 (BT-549): > 100 µM (inactive)
- GI50 (ACHN): > 100 µM (inactive)
- GI50 (OVCAR-4): > 100 µM (inactive)
- GI50 (A498): > 100 µM (inactive)
- GI50 (OVCAR-5): > 100 µM (inactive)
- GI50 (SK-OV-3): > 100 µM (inactive)
- GI50 (RXF 393): > 100 µM (inactive)
- GI50 (SK-MEL-28): > 100 µM (inactive)
- GI50 (SNB-19): > 100 µM (inactive)
- GI50 (HCT-15): > 100 µM
- GI50 (IGROV-1): > 100 µM (inactive)
- GI50 (U-251): > 100 µM (inactive)
- GI50 (786-0): > 100 µM (inactive)
- GI50 (Hs-578T): > 100 µM (inactive)
- GI50 (HL-60): > 100 µM (inactive)
- GI50 (NCI-H460): > 100 µM (inactive)
- GI50 (SF-295): > 100 µM (inactive)
- GI50 (NCI-H226): > 100 µM (inactive)
- GI50 (HCT-116): > 100 µM (inactive)
- GI50 (EKVX): > 100 µM (inactive)
- GI50 (SK-MEL-2): > 100 µM (inactive)
- GI50 (SR): > 100 µM (inactive)
- GI50 (DU-145): > 100 µM (inactive)
- GI50 (SN12C): > 100 µM (inactive)
- GI50 (SNB-75): > 100 µM (inactive)
- GI50 (M14): > 100 µM (inactive)
- GI50 (A549): > 100 µM (inactive)
- GI50 (T47D): > 100 µM (inactive)
- GI50 (UACC-62): > 100 µM (inactive)
- GI50 (RPMI-8226): > 100 µM (inactive)
- GI50 (NCI-H23): > 100 µM (inactive)
- GI50 (HT-29): > 100 µM (inactive)

Structure (SMILES): CCOc1ccccc1/N=N/C1C(=O)N(C(=O)CC(=O)Nc2ccccc2OC)N=C1C (stereo not given)
- GI50 (KM12): > 100 µM (inactive)
- GI50 (NCI/ADR-RES): 54.7 µM (inactive)
- GI50 (Malme-3M): > 100 µM (inactive)
- GI50 (LOX IMVI): > 100 µM (inactive)
- GI50 (SF-539): 53.2 µM (inactive)
- GI50 (MDA-MB-231): 30.3 µM (inactive)
- GI50 (MDA-N): > 100 µM (inactive)
- GI50 (OVCAR-8): 37.5 µM (inactive)
- GI50 (SW-620): > 100 µM (inactive)
- GI50 (HOP-62): 18.7 µM (inactive)
- GI50 (CAKI-1): > 100 µM (inactive)
- GI50 (SK-MEL-5): > 100 µM (inactive)
- GI50 (HCC 2998): > 100 µM (inactive)
- GI50 (MDA-MB-435): > 100 µM (inactive)
- GI50 (OVCAR-3): > 100 µM (inactive)
- GI50 (MCF7): > 100 µM (inactive)
- GI50 (HOP-92): 20.3 µM (inactive)
- GI50 (MOLT-4): > 100 µM (inactive)
- GI50 (UO-31): 27.8 µM (inactive)
- GI50 (NCI-H522): 42.9 µM (inactive)
- GI50 (PC-3): > 100 µM (inactive)
- GI50 (COLO 205): > 100 µM (inactive)
- GI50 (SF-268): 22.4 µM (inactive)
- GI50 (CCRF-CEM): > 100 µM (inactive)
- GI50 (BT-549): > 100 µM (inactive)
- GI50 (ACHN): > 100 µM (inactive)
- GI50 (OVCAR-4): > 100 µM (inactive)
- GI50 (A498): 63.4 µM (inactive)
- GI50 (OVCAR-5): > 100 µM (inactive)
- GI50 (SK-OV-3): 27.5 µM (inactive)
- GI50 (RXF 393): 24.2 µM (inactive)
- GI50 (SK-MEL-28): > 100 µM (inactive)
- GI50 (HCT-15): 15.7 µM
- GI50 (IGROV-1): 50.8 µM (inactive)
- GI50 (U-251): 27.3 µM (inactive)
- GI50 (786-0): 56.2 µM (inactive)
- GI50 (Hs-578T): 1.78 µM (inactive)
- GI50 (HL-60): > 100 µM (inactive)
- GI50 (NCI-H460): 42.4 µM (inactive)
- GI50 (SF-295): 20.9 µM (inactive)
- GI50 (NCI-H226): > 100 µM (inactive)
- GI50 (HCT-116): 40.9 µM (inactive)
- GI50 (EKVX): 0.427 µM (active)
- GI50 (SK-MEL-2): 55.7 µM (inactive)
- GI50 (SR): > 10 µM (inactive)
- GI50 (DU-145): 71.3 µM (inactive)
- GI50 (SN12C): > 100 µM (inactive)
- GI50 (SNB-75): 16.3 µM (inactive)
- GI50 (M14): > 100 µM (inactive)
- GI50 (A549): > 100 µM (inactive)
- GI50 (T47D): 37 µM (inactive)
- GI50 (TK-10): > 100 µM (inactive)
- GI50 (UACC-62): 25.7 µM (inactive)
- GI50 (RPMI-8226): 45.2 µM (inactive)
- GI50 (NCI-H23): 80 µM (inactive)
- GI50 (HT-29): > 100 µM (inactive)

Structure (SMILES): O=c1[nH]nc(Nc2ccc(Cl)cc2)c2nnn(C3CCCCC3)c12
- GI50 (KM12): 65.5 µM (inactive)
- GI50 (NCI/ADR-RES): 32.1 µM (inactive)
- GI50 (Malme-3M): 50.8 µM (inactive)
- GI50 (LOX IMVI): 16.4 µM (inactive)
- GI50 (SF-539): > 100 µM (inactive)
- GI50 (MDA-MB-231): 13.9 µM (inactive)
- GI50 (MDA-N): > 100 µM (inactive)
- GI50 (OVCAR-8): 14.1 µM (inactive)
- GI50 (SW-620): 62.4 µM (inactive)
- GI50 (HOP-62): 30.8 µM (inactive)
- GI50 (CAKI-1): 16.2 µM (inactive)
- GI50 (SK-MEL-5): > 100 µM (inactive)
- GI50 (HCC 2998): > 100 µM (inactive)
- GI50 (MDA-MB-435): 46.3 µM (inactive)
- GI50 (UACC-257): > 100 µM (inactive)
- GI50 (OVCAR-3): 37.2 µM (inactive)
- GI50 (MCF7): 58.5 µM (inactive)
- GI50 (HOP-92): 22.4 µM (inactive)
- GI50 (K562): 26.5 µM (inactive)
- GI50 (UO-31): > 100 µM (inactive)
- GI50 (NCI-H522): 23.9 µM (inactive)
- GI50 (PC-3): > 100 µM (inactive)
- GI50 (COLO 205): 59.2 µM (inactive)
- GI50 (SF-268): 36.6 µM (inactive)
- GI50 (CCRF-CEM): 26.7 µM (inactive)
- GI50 (BT-549): > 100 µM (inactive)
- GI50 (ACHN): > 100 µM (inactive)
- GI50 (OVCAR-4): 17 µM (inactive)
- GI50 (A498): 37.4 µM (inactive)
- GI50 (OVCAR-5): > 100 µM (inactive)
- GI50 (RXF 393): 30.4 µM (inactive)
- GI50 (SK-MEL-28): > 100 µM (inactive)
- GI50 (SNB-19): > 100 µM (inactive)
- GI50 (HCT-15): 72.8 µM
- GI50 (IGROV-1): > 100 µM (inactive)
- GI50 (U-251): 25.2 µM (inactive)
- GI50 (786-0): 15.1 µM (inactive)
- GI50 (Hs-578T): 34.5 µM (inactive)
- GI50 (HL-60): 86.3 µM (inactive)
- GI50 (NCI-H460): 41.4 µM (inactive)
- GI50 (SF-295): > 100 µM (inactive)
- GI50 (NCI-H226): 86.7 µM (inactive)
- GI50 (HCT-116): 42.1 µM (inactive)
- GI50 (EKVX): 84.1 µM (inactive)
- GI50 (SK-MEL-2): > 100 µM (inactive)
- GI50 (SR): 7.19 µM (inactive)
- GI50 (DU-145): > 100 µM (inactive)
- GI50 (SN12C): > 100 µM (inactive)
- GI50 (SNB-75): 26.3 µM (inactive)
- GI50 (M14): 55.1 µM (inactive)
- GI50 (A549): > 100 µM (inactive)
- GI50 (T47D): > 100 µM (inactive)
- GI50 (TK-10): 53 µM (inactive)
- GI50 (UACC-62): > 100 µM (inactive)
- GI50 (RPMI-8226): 50.7 µM (inactive)
- GI50 (NCI-H23): 45.3 µM (inactive)
- GI50 (HT-29): 26.1 µM (inactive)
